# Source: a melting point compilation (Tetko et al.; mined from patent text by program, amines drawn as free bases though some values may be those of a salt)
row,Structure (SMILES),melting point
1,O=S(=O)(Nc1cccc2cc(-c3ccccn3)[nH]c12)c1cccs1,161 to 162 °C
2,O=C1Cc2ccccc2C(c2ccccc2C(F)(F)F)N1 (configuration not stated),210 to 212 °C
3,Cc1ccccc1S(=O)(=O)NC(=O)c1ccc2c(c1)CCN2Cc1cccc([N+](=O)[O-])c1,159 to 163 °C
4,CCOc1cc([C@@H](CS(C)(=O)=O)N2C(=O)c3cccc(NC(=O)COC)c3C2=O)ccc1OC,151 to 153 °C
5,CN(C)CCNc1ccc(NC(=O)Nc2ccc(Oc3ccccc3)cc2)cc1[N+](=O)[O-],178 to 180 °C
6,COc1cc(CC(=O)O)cc(OCCCc2cn(-c3ccc(C(F)(F)F)cn3)nc2C(C)C)c1,109 to 110 °C
7,O=C(NCCO)c1cc(C(=O)NCCO)cc([N+](=O)[O-])c1,151 °C
8,COc1cc(NCCCCCCN2CCN(CCCO)CC2)c2nccc(C)c2c1,100 to 102 °C
9,Cn1c(CO)nc2cccnc21,229 to 231 °C
10,NNC(=O)c1ccccc1Nc1cccc(C(F)(F)F)c1,134 to 135 °C
11,CC(C(=O)c1ccc(OC2CCCCO2)cc1)c1ccccc1 (configuration not stated),94 to 96 °C
12,C(=C\c1nc2ccccc2n1-c1ccncc1)/c1ccoc1,172 °C
13,c1cc(Nc2ccc3[nH]ncc3c2)ccn1,189 to 190 °C
14,Cc1ccc(S(=O)(=O)N2CCC(c3ccccc3)CC2)cc1,153 to 154 °C
15,O=Cc1cc(OCc2ccccc2)c(OCc2ccccc2)cn1,104 °C
16,CC(C)C(O)(C=Cc1ccc([N+](=O)[O-])cc1)CC(=O)OCc1ccccc1 (racemic),64 to 65 °C
17,C1=C(c2cccc3[nH]ccc23)CN(CCc2ccccc2)CC1,205 °C
18,CNc1nc(-c2cccc(NC(=O)c3ccc(OC)c(OC)c3)c2)c2cc(OC)c(OC)cc2n1,128 to 130 °C
19,C[C@H]1CCC[C@@](O)(CNC(=O)c2c(Cl)ccc3nc(N4CC[C@H](O)C4)ccc23)C1,222 °C
20,O=C(NN1CCCCC1)NS(=O)(=O)C=Cc1ccccc1,175 to 177 °C
21,O=C1CCC(Cc2c[nH]c3ncccc23)N1 (configuration not stated),160 to 162 °C
22,O=C(C(=Cc1ccc([N+](=O)[O-])cc1)c1ccccc1)c1ccc(O)cc1,153 to 157 °C
23,CCCCOc1c(CNC(=O)OC(C)(C)C)n(CC(C)C)c(=O)c2ccc(/C=C/C(=O)O)cc12,207 to 209 °C
24,CC(N)=CC(=O)OCC(C)(C)CN(C)Cc1ccccc1,68 to 70 °C
25,Cc1ccccc1-n1c(C)nc2c(c1=O)N(Cc1ccccc1)NN2,178 to 180 °C
26,c1cncc(-c2noc(-c3ccco3)n2)c1,110 to 114 °C

row,Structure (SMILES),melting point
1,CSc1ccc(Nc2nc(=O)cc(N)n2-c2ccc(C)cc2)cc1,231 to 234 °C
2,CCCCOC(=O)CCCCCCCCCCCOCC(O)CNCCO (configuration not stated),48.6 to 50.2 °C
3,Nc1cccc(OCc2ccccc2)c1NC(=O)c1ccc(OCc2ccccc2)c(C23CC4CC(CC(C4)C2)C3)c1,80 to 82 °C
4,CCc1c2nc(-c3cc(S(C)(=O)=O)ccc3OCC(C)C)[nH]c(=O)c2nn1C1CCNCC1,263 to 265 °C
5,COC1=C(OC)C(=O)C2=C(CCC(CC(=O)O)CC2)C1=O,130 to 132 °C
6,CN(OCc1nc2c(N)nc3ccccc3c2n1CC(C)(C)O)C(N)=O,206 to 207 °C
7,C#CCS(=O)c1ncc(Cl)cn1 (configuration not stated),92 °C
8,Nc1nc(O)c2cc(CCc3ccc(C(=O)N[C@@H](CCC(=O)O)C(=O)O)cc3)cnc2n1,> 200 °C
9,O=C(O)CCCCCCCCCN1C(=O)c2ccccc2C1=O,58 to 60 °C
10,CCOC(=O)NNc1cc(C)c(-c2ccc(C#N)cc2)nn1,189 to 191 °C
11,CNc1ccc2[nH]ccc2c1,113 to 114 °C
12,COc1ccc(C=C(NC(C)=O)C(=O)O)cc1OC,212 to 214 °C
13,COc1ccc(C(=O)C=Cc2cc(O)c(O)c([N+](=O)[O-])c2)cc1OC,206 to 208 °C
14,Cc1ccc(Cl)c(Nc2ccccc2-c2nnc(NC#N)o2)c1Cl,> 215 °C
15,CCN(CC)c1ccc(-n2c(C(F)(F)F)nn(C)c2=S)cn1,96 to 98 °C
16,CON(C)S(=O)(=O)NC(=O)Nc1nc(C)cc(C)n1,152 °C
17,O=C(O)[C@H](Cc1ccc(OCc2ccccc2)cc1)NS(=O)(=O)c1ccc(F)cc1,138 to 139 °C
18,Cc1ccc(S(=O)(=O)OCCC2COc3cc(Cl)c(Cl)cc3O2)cc1 (configuration not stated),135 to 138 °C
19,Oc1ccc2c(c1)SCCc1c-2n(CCCCCN2CCCCC2)c2ccccc12,130 °C
20,N#Cc1ccc(Cn2nc(-c3ccccc3O)nc2-c2ccccc2O)cc1,147 to 149 °C
21,Nc1ccc(S(=O)(=O)Nc2ccc(Cl)c3cc[nH]c23)cn1,204 to 206 °C
22,Cc1c(-c2ccc(O)cc2)n(Cc2ccc(OCCN3CCCCCCC3)cc2)c2ccc(O)cc12,98 to 102 °C
23,CCc1nn(CC)c(C(N)=O)c1Cc1ccc2oc(-c3ccccc3C(=O)O)c(Br)c2c1,171 to 172 °C
24,CCCc1cn(C)c2c(=O)[nH]c(-c3cc(S(=O)(=O)N4CCN(CCOC(C)=O)CC4)ccc3OCC)nc12,192 °C
25,CCOC(=O)c1cc(Oc2ccc3c(C(=O)Nc4cccc(C(F)(F)F)c4)cccc3c2)ncn1,194 °C
26,COc1cccc2[nH]c(C(=O)OCc3ccccc3)cc12,162 to 164 °C

row,Structure (SMILES),melting point
1,CC(=O)N1CCc2c(sc(C)c2C(=O)CCN2CCC(c3noc4cc(F)ccc34)CC2)C1,180 to 182 °C
2,CCOC(=O)c1c(C)nc2c(ncn2C)c1OCCC(C)C,64 to 66 °C
3,CC(C)C[C@H](NC(=O)OCC1c2ccccc2-c2ccccc21)C(=O)N[C@H]1CCOC1=O,175 to 176 °C
4,CCCCCCCCC1=C(Cl)C(=O)c2ccccc2C1=O,69 to 70 °C
5,C=C1N(c2cccc3ccccc23)C(=O)OC12CCN(CCC=C(c1ccc(F)cc1)c1ccc(F)cc1)CC2,99 to 101 °C
6,CSCCOC(=O)N(C)c1nnc(-c2cncc(F)c2)s1,104 to 106 °C
7,CCCCOc1ccccc1Nc1ncc(C(=O)OCC)c(=O)[nH]1,209 to 211 °C
8,O=C1CCC(=NNc2ccccc2)c2ncccc2N1,206 °C
9,CCN(CC)CC(C)N1c2ccccc2Sc2ccc(C(N)=S)cc21 (configuration not stated),180 °C
10,Cn1nc2c(-c3ccc(Cl)cc3Cl)cccc2c1C(=O)c1ncn[nH]1,284 to 285 °C
11,CC(=O)COc1cc2c3ccccc3n(Cc3ccccc3)c2cn1,141 to 142 °C
12,CC(=O)N(O)Cc1ccc2c(c1)Cc1ccccc1-2,182 to 183 °C
13,Cc1cc(C)nc(NC(=O)NS(=O)(=O)Nc2nc(C)cc(C)n2)n1,198 °C
14,CN1CCC2(C)c3cc(C(=O)C(=O)OCc4ccccc4)ccc3N(C)C12 (configuration not stated),53 to 57 °C
15,Cc1cc2ccccc2nc1-n1cncn1,80 to 81 °C
16,Nc1c([N+](=O)[O-])sc2ccc(Br)cc12,282 to 284 °C
17,CC1(C)C=C(CN2C/C(=C\c3ccc(F)cc3)C(=O)/C(=C/c3ccc(F)cc3)C2)C(C)(C)N1O,142 to 144 °C
18,Oc1cccc(C2CCCN(CCCc3ccccc3)C2)c1 (configuration not stated),119 to 120 °C
19,O=C(C(CCCl)c1ccccc1)N1CCCCCC1 (configuration not stated),50 to 53 °C
20,CCOCCOC(=O)C1=C(C)N(COCC)C(C)=C(C(=O)OCCOCC)C1c1cccc([N+](=O)[O-])c1,63 to 63.5 °C
21,CS(=O)(=O)c1ccc(-c2oc3ccccc3c(=O)c2-c2ccc(Cl)cc2)cc1,145 to 147 °C
22,CNC(=C[N+](=O)[O-])NCCSCc1[nH]cnc1C,141 to 143 °C
23,CC(C)(C)OC1OC(=O)CC(C)(C)C1OS(C)(=O)=O (configuration not stated),64 °C
24,CC(=O)C1Oc2c(C(C)(C)C)cc(Cl)cc2C1(C)C (configuration not stated),76 to 77 °C
25,CNC(=C[N+](=O)[O-])NCCSCc1csc(CN2CCCCC2)n1,100 to 103 °C
26,Cn1ccnc1NC(=S)Nc1ccccc1,170 to 172 °C

row,Structure (SMILES),melting point
1,N#CCOc1ccc2cc(-c3csc(-c4ccccc4)n3)ccc2c1,113 to 117 °C
2,CCC(CC)n1ncn(-c2ccc(N3CCN([C@H](C)[C@@](O)(Cn4cncn4)c4ccc(F)cc4F)CC3)cc2)c1=O,110 to 113 °C
3,CC(C)(C)OC(=O)N1CCc2c(n(CCO)c3cc(Cl)cc(Cl)c23)CC1,166 to 167 °C
4,COc1cc(C#C[Si](C)(C)C)c(OC)cc1C#C[Si](C)(C)C,164 to 165 °C
5,Cc1c(-c2ccnnc2)ssc1=S,146 °C
6,Cc1cc(-n2c(C)nc3ccccc32)cc2ccc(=O)[nH]c12,307 to 313 °C
7,CN1Cc2c(Br)ncn2-c2ccc(F)cc2C1=O,200 °C
8,Cc1ccc(S(=O)(=O)N(CCN=[N+]=[N-])CCN=[N+]=[N-])cc1,47 to 48 °C
9,COc1ccc(N2CCN(c3ccc(-n4cn[nH]c4=O)cc3)CC2)cc1,300 °C
10,CCc1cc(O)cc(C)c1N,167 to 170 °C
11,CCOc1cc(OCCCc2cn(-c3cc(C(F)(F)F)ccn3)nc2OCC)ccc1CCC(=O)OC,79 to 81 °C
12,Cn1ccc(NC(=S)S)n1,79 to 82 °C
13,O=Cc1ccc(-c2ccccc2-c2nnn(C(c3ccccc3)(c3ccccc3)c3ccccc3)n2)cc1,147 to 149 °C
14,CC1CCCC(C)N1S(=O)(=O)N[C@@H](Cc1ccc(Nc2nccc3cnccc23)cc1)C(=O)O (some centres not stated),204 °C
15,CCOC(=O)CN1C(=O)C(=Cc2ccccc2)SC1=S,122 to 125 °C
16,CCOC(=O)c1cc2ccc(C(C)C)nc2s1,73 to 74 °C
17,CON=C1c2c(Cl)cc(Cl)c(-n3c(=O)cc(C(F)(F)F)n(C)c3=O)c2OC1(C)C,145 to 149 °C
18,CCCCn1c(=O)n(CCC)c(=O)c2[nH]c(C)nc21,174 to 175 °C
19,Cn1c(C(F)(F)F)cc(=O)n(-c2cc(OCC=C(Cl)Cl)c(Cl)cc2F)c1=O,126 to 127 °C
20,Fc1cc(F)c2c(c1)CCC(n1cc[nH]c1=S)C2 (configuration not stated),260 to 261 °C
21,N#CCC(O)(Cn1cncn1)c1ccc(F)cc1F (configuration not stated),154 to 155 °C
22,Cn1c(C(F)(F)F)cc(=O)n(-c2c(F)cc(Cl)c3ccoc23)c1=O,127 to 128 °C
23,COc1ccc(-c2sc3ncc(CO)c(O)c3c2C)cc1,> 300 °C
24,COc1ccnc(CSc2nc3cc4c(cc3[nH]2)OCO4)c1OC,155 to 157 °C
